Measured values from US20120148633A1, “BINARY AND TERTIARY GALVANIC PARTICULATES AND METHODS OF MANUFACTURING AND USE THEREOF” (priority 2009, published 2012).

Assays:
[1] = system: acetic acid-induced writhes; experiment: Acetic acid-induced writhing, oral administration; assay type: in vivo, Albino male CD-1 mice; conditions: 100 mg/kg orally 1 hour prior to i.p. acetic acid
Protocol: In this example, galvanic particulates produced by the process of Example 1 were evaluated for analgesic activity. Aspirin, a non-steroidal analgesic agent, which is known to show efficacy in this model, was included as a reference compound. Albino male CD-1 mice, weighing 24±2 g were used in the study. Galvanic particulates or aspirin were prepared in deionized water (DI Water) and were administered orally at a concentration of 100 mg/kg to mice 1 hour prior to injection of acetic acid. A […] of a 0.5% acetic acid solution was injected intraperitoneally, and the number of acetic acid-induced writhes were counted by an observer blinded to the treatment groups. A 50% decrease in the number of writhes indicated analgesic activity.

[2] = system: oxazolone-induced skin inflammation; experiment: Murine model of contact hypersensitivity (oxazolone ear inflammation), topical; assay type: in vivo, Albino male CD-1 mice; conditions: 1 mg/ml, 20 μl to left ear 1 hour after oxazolone challenge; ear biopsy weight at 24 hours

## CC(=O)Oc1ccccc1C(=O)O [Aspirin]
[1]
  Analgesic Effectiveness (Percent Reduction Writhes): 56%
[1]; vehicle 11.4 ± 6.1
  Total Number of Writhes (Mean ± Std Dev): 5.0 ± 3.6

## C[C@]12CCC(=O)C=C1CC[C@@H]1[C@@H]2[C@@H](O)C[C@@]2(C)[C@H]1CC[C@]2(O)C(=O)CO [Hydrocortisone]
[2]
  Percent Inhibition of Skin Inflammation: 70.3% ± 6.6%
